Source: patent US20240158446A1, “CYCLIC COMPOUND HAVING SELECTIVE INHIBITORY ACTION ON KRAS OVER HRAS AND NRAS” (CHUGAI SEIYAKU KABUSHIKI KAISHA, priority 2021, published 2024)
Read-outs that look alike come from different tables or passages of the source.

Experiments:
[1] = target: GDP-bound KRAS wild-type protein (Homo sapiens, UniProt P01116); assay: Binding to KRAS by surface plasmon resonance (SPR), Single Cycle Kinetics; details: GDP-bound KRAS wild-type protein, read-out: KRAS KD
[2] = target: GDP-bound NRAS wild-type protein (Homo sapiens, UniProt P01111); assay: Binding to NRAS by surface plasmon resonance (SPR), Single Cycle Kinetics; details: for NRAS/KRAS (ratio of KD value for NRAS to KD value for KRAS): SPR, GDP-bound NRAS wild-type protein vs GDP-bound KRAS wild-type protein; for NRAS/KRAS (ratio of KD value with respect to GDP-bound NRAS wild-type protein to KD value with respect to KRAS): SPR KD ratio NRAS/KRAS, class symbols
GDP-bound NRAS wild-type protein, sequence (P01111 whole entry): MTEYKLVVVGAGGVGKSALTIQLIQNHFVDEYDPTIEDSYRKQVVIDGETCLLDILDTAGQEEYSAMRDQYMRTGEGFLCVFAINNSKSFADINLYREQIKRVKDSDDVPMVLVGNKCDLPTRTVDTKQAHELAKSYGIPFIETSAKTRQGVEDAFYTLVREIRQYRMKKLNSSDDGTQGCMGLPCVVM

[3] = target: GDP-bound HRAS wild-type protein (Homo sapiens, UniProt P01112); assay: Binding to HRAS by surface plasmon resonance (SPR), Single Cycle Kinetics; details: for HRAS/KRAS (ratio of KD value for HRAS to KD value for KRAS): SPR, GDP-bound HRAS wild-type protein vs GDP-bound KRAS wild-type protein; for HRAS/KRAS (ratio of KD value with respect to GDP-bound HRAS wild-type protein to KD value with respect to KRAS): SPR KD ratio HRAS/KRAS, class symbols
GDP-bound HRAS wild-type protein, sequence (P01112 whole entry): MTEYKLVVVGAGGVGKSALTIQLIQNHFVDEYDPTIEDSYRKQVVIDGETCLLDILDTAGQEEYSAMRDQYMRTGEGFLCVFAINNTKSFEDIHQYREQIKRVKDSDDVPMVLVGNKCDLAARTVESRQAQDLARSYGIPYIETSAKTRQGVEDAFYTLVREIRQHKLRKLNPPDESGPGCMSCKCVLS

[4] = system: human lung cancer strain NCI-H441;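 also: cell proliferation inhibition after four days measured by CellTiter-Glo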
[5] = SPR, Single Cycle Kinetics, 1:1 binding model
[6] = SPR Single Cycle Kinetics, 1:1 binding model

GDP-bound KRAS wild-type protein, sequence (P01116 whole entry): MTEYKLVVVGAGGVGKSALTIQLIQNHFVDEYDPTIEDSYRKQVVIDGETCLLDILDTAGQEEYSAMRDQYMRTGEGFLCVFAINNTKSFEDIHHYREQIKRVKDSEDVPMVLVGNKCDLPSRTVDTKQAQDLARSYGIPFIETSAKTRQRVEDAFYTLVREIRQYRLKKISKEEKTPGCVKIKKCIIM

Row | Kd [1, 5] | IC50 [4] | Kd [1, 6] | Kd ([1]; SPR, Single Cycle Kinetics) | Structure (SMILES) | NRAS/KRAS (ratio of KD value for NRAS to KD value for KRAS) ([2]; KD ratio class) | HRAS/KRAS (ratio of KD value for HRAS to KD value for KRAS) ([3]; KD ratio class) | NRAS/KRAS (ratio of KD value with respect to GDP-bound NRAS wild-type protein to KD value with respect to KRAS) [2] | HRAS/KRAS (ratio of KD value with respect to GDP-bound HRAS wild-type protein to KD value with respect to KRAS) [3] | NRAS/KRAS (ratio of KD value for NRAS to KD value for KRAS) [2] | HRAS/KRAS (ratio of KD value for HRAS to KD value for KRAS) [3]
1 | 0.14 nM | 37.1 nM | – | – | CCO[C@@H]1C[C@H]2C(=O)NC3(CCC3)C(=O)N(C)[C@@H](C3CCCC3)C(=O)N(C)[C@H](C(=O)N(C)C)CC(=O)N(C)[C@@H](CC3CCCC3)C(=O)N[C@@H]([C@@H](C)CC)C(=O)N(C)CC(=O)N(C)[C@H]3C/C=C\CCN(C3=O)[C@@H](CC3CCCCC3)C(=O)N(C)CC(=O)N[C@@H](CCc3cc(F)c(C(F)(F)F)c(F)c3)C(=O)N2C1 [PP1472, (2S,8S,12R,14S,20S,23S,27S,30S,36S,38Z)-2-(cyclohexylmethyl)-20-cyclopentyl-27-(cyclopentylmethyl)-8-[2-[3,5-difluoro-4-(trifluoromethyl)phenyl]ethyl]-12-ethoxy-N,N,4,19,22,26,32,35-octamethyl-30-[(1S)-1-methylpropyl]-3,6,9,15,18,21,25,28,31,34,42-undecaoxo-spiro[1,4,7,10,16,19,22,26,29,32,35-undecazatricyclo[34.5.1.0^10,14]dotetracont-38-ene-17,1′-cyclobutane]-23-carboxamide] | A (a compound having 10 or more and less than 20 is denoted as A) | A (a compound having 10 or more and less than 20 is denoted as A) | – | – | – | –
2 | – | 271 nM | 5.6 nM | – | CCC[C@H]1C(=O)N[C@@H](CC(C)C)C(=O)N2C[C@@H](OC)C[C@H]2C(=O)N(C)[C@H]2C/C=C\CCN(C2=O)[C@@H](Cc2ccc(C)cc2)C(=O)N(C)CC(=O)N[C@@H](CCc2ccc(C(F)(F)F)c(OC)c2)C(=O)N2C[C@H](OCC)C[C@H]2C(=O)NC2(CC(C)(C)C2)C(=O)N(C)[C@@H](C2CCCC2)C(=O)N(C)[C@H](C(=O)N(C)C)CC(=O)N1C [PP2554] | – | – | A (a compound having 10 or more and less than 20 is denoted as A) | B (a compound having 3 or more and less than 10 is denoted as B) | – | –
3 | – | 124 nM | – | 0.81 nM | CCOC[C@H]1C(=O)N[C@@H]([C@@H](C)CC)C(=O)N(C)CC(=O)N(C)[C@H]2C/C=C\CCN(C2=O)[C@@H](CC2CCC(F)(F)CC2)C(=O)N(C)CC(=O)N[C@@H](CCc2ccc(C(F)(F)F)c(OC)c2)C(=O)N2C[C@H](OCC)C[C@H]2C(=O)NC2(CC(C)(C)C2)C(=O)N(C)[C@@H](C(CC)CC)C(=O)N(C)[C@H](C(=O)N(C)C)CC(=O)N1C [PP2446] | – | – | – | – | A (a compound having 10 or more and less than 20 is denoted as A) | A (a compound having 10 or more and less than 20 is denoted as A)
4 | 0.15 nM | 34.4 nM | – | – | CCO[C@@H]1C[C@H]2C(=O)NC(C)(C)C(=O)N(C)[C@@H](C3CCCC3)C(=O)N(C)[C@H](C(=O)N(C)C)CC(=O)N(C)[C@@H](CC)C(=O)N[C@@H]([C@@H](C)CC)C(=O)N(C)CC(=O)N(C)[C@H]3C/C=C\CCN(C3=O)[C@@H](Cc3ccc(C(F)(F)F)cc3)C(=O)N(C)CC(=O)N[C@@H](CCc3cc(F)c(C(F)(F)F)c(F)c3)C(=O)N2C1 [PP1280] | A (a compound having 10 or more and less than 20 is denoted as A) | A (a compound having 10 or more and less than 20 is denoted as A) | – | – | – | –
5 | – | 127 nM | – | 1.8 nM | CCO[C@@H]1C[C@H]2C(=O)NC3(CC(C)(C)C3)C(=O)N(C)[C@@H](C(CC)CC)C(=O)N(C)[C@H](C(=O)N(C)C)CC(=O)N(C)[C@@H](C(C)C)C(=O)N[C@@H]([C@@H](C)CC)C(=O)N(C)CC(=O)N(C)[C@H]3C/C=C\CCN(C3=O)[C@@H](CC3CCC(F)(F)CC3)C(=O)N(C)CC(=O)N[C@@H](CCc3ccc(C(F)(F)F)c(OC)c3)C(=O)N2C1 [PP2477] | – | – | – | – | A (a compound having 10 or more and less than 20 is denoted as A) | A (a compound having 10 or more and less than 20 is denoted as A)
6 | – | 21.8 nM | – | 0.26 nM | CCCOC[C@H]1C(=O)N[C@@H]([C@@H](C)CC)C(=O)N(C)CC(=O)N(C)[C@H]2C/C=C\CCN(C2=O)[C@@H](Cc2ccc(C)cc2)C(=O)N(C)CC(=O)N[C@@H](CCc2ccc(C(F)(F)F)c(Cl)c2)C(=O)N2C[C@@H](C)C[C@H]2C(=O)NC2(CC(C)(C)C2)C(=O)N(C)[C@@H](C2CCCC2)C(=O)N(C)[C@H](C(=O)N(C)CC)CC(=O)N1C [PP2467] | – | – | – | – | A (a compound having 10 or more and less than 20 is denoted as A) | B (a compound having 3 or more and less than 10 is denoted as B)
7 | – | 46.5 nM | 0.91 nM | – | CCO[C@@H]1C[C@H]2C(=O)NC3(CC(C)(C)C3)C(=O)N(C)[C@@H](C3CCCC3)C(=O)N(C)[C@H](C(=O)N(C)C)CC(=O)N(C)[C@@H](COC)C(=O)N[C@@H]([C@@H](C)CC)C(=O)N(C3CC3)CC(=O)N(C)[C@H]3C/C=C\CCN(C3=O)[C@@H](CC3CCCCC3)C(=O)N(C)CC(=O)N[C@@H](CCc3cc(F)c(C(F)(F)F)c(F)c3)C(=O)N2C1 [PP2562] | – | – | B (a compound having 3 or more and less than 10 is denoted as B) | B (a compound having 3 or more and less than 10 is denoted as B) | – | –
8 | – | 32.5 nM | – | 0.081 nM | CCO[C@@H]1C[C@H]2C(=O)NC3(CCC3)C(=O)N(C)[C@@H](C3CCCC3)C(=O)N(C)[C@H](C(=O)N3CCOCC3)CC(=O)N(C)[C@@H](CC(F)F)C(=O)N[C@@H]([C@@H](C)CC)C(=O)N(C)CC(=O)N(C)[C@H]3CCCCCN(C3=O)[C@@H](Cc3ccc(F)cc3)C(=O)N(C)CC(=O)N[C@@H](CCc3cc(F)c(C(F)(F)F)c(F)c3)C(=O)N2C1 [PP1177] | – | – | – | – | B (a compound having 3 or more and less than 10 is denoted as B) | B (a compound having 3 or more and less than 10 is denoted as B)
9 | 0.26 nM | 13.4 nM | – | – | CCO[C@@H]1C[C@H]2C(=O)NC3(CCC3)C(=O)N(C)[C@@H](C3CCCC3)C(=O)N(C)[C@H](C(=O)N3CCOCC3)CC(=O)N(C)[C@@H](CC)C(=O)N[C@@H]([C@@H](C)CC)C(=O)N3CC[C@H]3C(=O)N(C)[C@H]3CC[C@@H](C)CN(C3=O)[C@@H](Cc3ccc(C(F)(F)F)cc3)C(=O)N(C)CC(=O)N[C@@H](CCc3cc(F)c(C(F)(F)F)c(F)c3)C(=O)N2C1 [PP1369] | B (a compound having 3 or more and less than 10 is denoted as B) | B (a compound having 3 or more and less than 10 is denoted as B) | – | – | – | –
10 | 0.13 nM | 30.5 nM | – | – | CCO[C@@H]1C[C@H]2C(=O)NC3(CCC3)C(=O)N(C)[C@@H](C3CCCC3)C(=O)N(C)[C@H](C(=O)N(C)C)CC(=O)N(C)[C@@H](CC)C(=O)N[C@@H]([C@@H](C)CC)C(=O)N(C)CC(=O)N(C)[C@H]3C/C=C\CCN(C3=O)[C@@H](CC3CCC(F)(F)CC3)C(=O)N(C)CC(=O)N[C@@H](CCc3cc(F)c(C(F)(F)F)c(F)c3)C(=O)N2C1 [PP1452, (2S,8S,12R,14S,20S,23S,27S,30S,36S,38Z)-20-cyclopentyl-2-[(4,4-difluorocyclohexyl)methyl]-8-[2-[3,5-difluoro-4-(trifluoromethyl)phenyl]ethyl]-12-ethoxy-27-ethyl-N,N,4,19,22,26,32,35-octamethyl-30-[(1S)-1-methylpropyl]-3,6,9,15,18,21,25,28,31,34,42-undecaoxo-spiro[1,4,7,10,16,19,22,26,29,32,35-undecazatricyclo[34.5.1.0^10,14]dotetracont-38-ene-17,1′-cyclobutane]-23-carboxamide] | A (a compound having 10 or more and less than 20 is denoted as A) | A (a compound having 10 or more and less than 20 is denoted as A) | – | – | – | –
11 | – | 66 nM | – | 0.98 nM | CCCOC[C@H]1C(=O)N[C@@H]([C@@H](C)CC)C(=O)N(C)CC(=O)N(C)[C@H]2C/C=C\CCN(C2=O)[C@@H](CC2CCC(F)(F)CC2)C(=O)N(C)CC(=O)N[C@@H](CCc2ccc(C(F)(F)F)c(OC)c2)C(=O)N2C[C@H](OCC)C[C@H]2C(=O)NC2(CC(C)(C)C2)C(=O)N(C)[C@@H](C(CC)CC)C(=O)N(C)[C@H](C(=O)N(C)C)CC(=O)N1C [PP2464] | – | – | – | – | A (a compound having 10 or more and less than 20 is denoted as A) | A (a compound having 10 or more and less than 20 is denoted as A)

Row | Structure (SMILES) | Kd [1, 5] | IC50 [4] | Kd [1, 6] | Kd ([1]; SPR, Single Cycle Kinetics) | NRAS/KRAS (ratio of KD value for NRAS to KD value for KRAS) ([2]; KD ratio class) | HRAS/KRAS (ratio of KD value for HRAS to KD value for KRAS) ([3]; KD ratio class) | NRAS/KRAS (ratio of KD value with respect to GDP-bound NRAS wild-type protein to KD value with respect to KRAS) [2] | HRAS/KRAS (ratio of KD value with respect to GDP-bound HRAS wild-type protein to KD value with respect to KRAS) [3] | NRAS/KRAS (ratio of KD value for NRAS to KD value for KRAS) [2] | HRAS/KRAS (ratio of KD value for HRAS to KD value for KRAS) [3]
12 | CCO[C@@H]1C[C@H]2C(=O)NC3(CCC3)C(=O)N(C)[C@@H](C3CCCC3)C(=O)N(C)[C@H](C(=O)N3CCCCC3)CC(=O)N(C)[C@@H](CC)C(=O)N[C@@H]([C@@H](C)CC)C(=O)N(C)CC(=O)N(C)[C@H]3C/C=C\CCN(C3=O)[C@@H](Cc3ccc(C(F)(F)F)cc3)C(=O)N(C)CC(=O)N[C@@H](CCc3cc(F)c(C(F)(F)F)c(F)c3)C(=O)N2C1 [PP1289] | 0.17 nM | 34.7 nM | – | – | AA (a compound having 20 or more is denoted as AA) | A (a compound having 10 or more and less than 20 is denoted as A) | – | – | – | –
